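48-hour exposure; five concentrations; linearly interpolated endpoints. TGI: concentration producing complete growth inhibition.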
What was measured:
Assay in all cases: NCI-60 cell line screen, 48 h
NCI/ADR-RES ovarian = system: NCI/ADR-RES ovarian
NCI-H522 lung = system: NCI-H522 lung
HOP-92 NSCLC = system: HOP-92 NSCLC
OVCAR-5 ovarian = system: OVCAR-5 ovarian
HCT-15 colon = system: HCT-15 colon
CAKI-1 renal = system: CAKI-1 renal
RXF 393 renal = system: RXF 393 renal
OVCAR-3 ovarian = system: OVCAR-3 ovarian
SN12C renal = system: SN12C renal
MOLT-4 leukemia = system: MOLT-4 leukemia
U251 CNS = system: U251 CNS
IGROV1 ovarian = system: IGROV1 ovarian
MDA-MB-231 breast = system: MDA-MB-231 breast
BT-549 breast = system: BT-549 breast
A549 NSCLC = system: A549 NSCLC
OVCAR-8 ovarian = system: OVCAR-8 ovarian
HT29 colon = system: HT29 colon
SK-MEL-5 melanoma = system: SK-MEL-5 melanoma
RPMI-8226 leukemia = system: RPMI-8226 leukemia
NCI-H460 lung = system: NCI-H460 lung
SK-OV-3 ovarian = system: SK-OV-3 ovarian
786-0 renal = system: 786-0 renal
MCF7 breast = system: MCF7 breast
MDA-MB-435 = system: MDA-MB-435
NCI-H226 lung = system: NCI-H226 lung
SF-539 CNS = system: SF-539 CNS
HCT-116 colon = system: HCT-116 colon
SK-MEL-2 melanoma = system: SK-MEL-2 melanoma
UO-31 renal = system: UO-31 renal
SK-MEL-28 melanoma = system: SK-MEL-28 melanoma
NCI-H23 lung = system: NCI-H23 lung
HL-60(TB) leukemia = system: HL-60(TB) leukemia
SNB-75 CNS = system: SNB-75 CNS
MALME-3M melanoma = system: MALME-3M melanoma
EKVX NSCLC = system: EKVX NSCLC
PC-3 prostate = system: PC-3 prostate
CCRF-CEM leukemia = system: CCRF-CEM leukemia
UACC-62 melanoma = system: UACC-62 melanoma
MDA-N = system: MDA-N
SR leukemia = system: SR leukemia
SF-295 CNS = system: SF-295 CNS
HCC-2998 colon = system: HCC-2998 colon
KM12 colon = system: KM12 colon
T-47D breast = system: T-47D breast
DU-145 prostate = system: DU-145 prostate
TK-10 renal = system: TK-10 renal
M14 melanoma = system: M14 melanoma
ACHN renal = system: ACHN renal
LOX IMVI melanoma = system: LOX IMVI melanoma
SNB-19 CNS = system: SNB-19 CNS
A498 renal = system: A498 renal
COLO 205 colon = system: COLO 205 colon
K-562 leukemia = system: K-562 leukemia
OVCAR-4 ovarian = system: OVCAR-4 ovarian
SW-620 colon = system: SW-620 colon
HOP-62 NSCLC = system: HOP-62 NSCLC
UACC-257 melanoma = system: UACC-257 melanoma
SF-268 CNS = system: SF-268 CNS
HS 578T breast = system: HS 578T breast

Measured: TGI

COc1cc(/C=C2\C(=O)N(c3cc(Cl)ccc3Cl)C(c3ccccc3)S2(=O)=O)cc(OC)c1OC (centres undefined)
99.4 µM: MOLT-4 leukemia
96.2 µM: MDA-MB-435
66.1 µM: MDA-N
51.7 µM: HL-60(TB) leukemia
not listed: SF-268 CNS | HS 578T breast
> 100 µM: all other assays above

CC(C)(C)C1CCC2c3c([nH]c4ccccc34)C3C(=O)N(c4cccc([N+](=O)[O-])c4)C(=O)C3C2C1 (centres undefined)
99.4 µM: HOP-62 NSCLC
48.8 µM: NCI-H522 lung
25.3 µM: KM12 colon
63.4 µM: HCC-2998 colon
49.8 µM: LOX IMVI melanoma
73.6 µM: COLO 205 colon
74.2 µM: NCI/ADR-RES ovarian
66.8 µM: EKVX NSCLC
45.7 µM: MDA-N
77.6 µM: SF-268 CNS
40 µM: BT-549 breast
59.7 µM: MALME-3M melanoma
25.5 µM: SN12C renal
64.1 µM: SK-MEL-2 melanoma
54.2 µM: CAKI-1 renal
92.3 µM: MDA-MB-231 breast
81.5 µM: MDA-MB-435
43.7 µM: 786-0 renal
53.1 µM: NCI-H226 lung
61.6 µM: UACC-257 melanoma
40.4 µM: HCT-116 colon
not listed: SK-MEL-5 melanoma | RPMI-8226 leukemia | HL-60(TB) leukemia | HS 578T breast
> 100 µM: all other assays above

CN1C2CCC1CC(CC(=O)NC(c1ccc(F)cc1)c1ccc(F)cc1)C2 (centres undefined)
6.66 µM: HL-60(TB) leukemia
33.7 µM: M14 melanoma
44.2 µM: COLO 205 colon
55.1 µM: SK-MEL-28 melanoma
89.5 µM: SR leukemia
60.4 µM: MALME-3M melanoma
39.4 µM: UACC-257 melanoma
80.6 µM: CCRF-CEM leukemia
45.1 µM: SK-MEL-5 melanoma
49 µM: SK-MEL-2 melanoma
not listed: MCF7 breast | UACC-62 melanoma | HCC-2998 colon
> 100 µM: all other assays above

CCCCc1ccc(Nc2cc(=O)n(C)c(=O)[nH]2)cc1
72.9 µM: MCF7 breast
not listed: MOLT-4 leukemia | HL-60(TB) leukemia | CCRF-CEM leukemia | SR leukemia | DU-145 prostate
> 100 µM: all other assays above

CN1CCN([C@H]2C[C@H]3[C@@H]4CC=C5C[C@@H](N6CCCC6)CC[C@]5(C)[C@H]4CC[C@]3(C)[C@H]2O)CC1
53.6 µM: RPMI-8226 leukemia
39.9 µM: SK-MEL-5 melanoma
39.1 µM: LOX IMVI melanoma
42.8 µM: RXF 393 renal
55 µM: MDA-N
35.8 µM: MALME-3M melanoma
47.9 µM: HL-60(TB) leukemia
55.8 µM: SK-MEL-28 melanoma
16.4 µM: SR leukemia
34.2 µM: K-562 leukemia
29.8 µM: M14 melanoma
97.8 µM: HCC-2998 colon
30.6 µM: SF-539 CNS
48.3 µM: UACC-257 melanoma
not listed: CAKI-1 renal | DU-145 prostate
> 100 µM: all other assays above

Source: PubChem BioAssay (NCI)
